Test results reported in PubChem BioAssay AID330 (DTP/NCI, 2004).
Several values for one entry are separate records, joined by “and”; a condition that tells them apart may be missing. Identical values can stand only once. Inconclusive results and toxic doses are left out.

Tested on: P388 leukemia ip, CD2F1 mice, survival T/C
Assay: NCI In Vivo Anticancer Drug Screen. Data for tumor model P388 Leukemia (intraperitoneal) in CD2F1 (CDF1) mice
Conditions: endpoint: median survival time, higher = longer survival
In short: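 Mice carrying the transplanted tumor received test compound or vehicle. Survival was recorded in each group, and the value is the treated-group measurement divided by that of the vehicle-treated control group.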

[1] = dose: 50.0 mg/kg/injection, schedule: Q01DX009 (ip), vehicle: saline
[2] = dose: 100.0 mg/kg/injection, schedule: Q01DX009 (ip), vehicle: saline
[3] = dose: 200.0 mg/kg/injection, schedule: Q01DX009 (ip), vehicle: saline
[4] = dose: 60.0 mg/kg/injection, schedule: Q01DX005 (ip), vehicle: saline with Tween-80
[5] = dose: 120.0 mg/kg/injection, schedule: Q01DX005 (ip), vehicle: saline with Tween-80
[6] = dose: 50.0 mg/kg/injection, schedule: Q01DX005 (ip), vehicle: Klucel (hydroxypropylcellulose) (HPC)
[7] = dose: 100.0 mg/kg/injection, schedule: Q01DX005 (ip), vehicle: Klucel (hydroxypropylcellulose) (HPC)
[8] = dose: 200.0 mg/kg/injection, schedule: Q01DX005 (ip), vehicle: Klucel (hydroxypropylcellulose) (HPC)
[9] = dose: 50.0 mg/kg/injection, schedule: Q01DX009 (ip), vehicle: saline with Tween-80
[10] = dose: 100.0 mg/kg/injection, schedule: Q01DX009 (ip), vehicle: saline with Tween-80
[11] = dose: 25.0 mg/kg/injection, schedule: Q01DX009 (ip), vehicle: saline with Tween-80

O=c1[nH]c(=S)ccn1C1OC(CO)C(O)C1O (configuration not stated)
T/C [1]: 97 % of control | T/C [2]: 101 % of control | T/C [3]: 93 % of control

CCOC(=O)C1CSCN1 (configuration not stated)
T/C (dose: 25.0 mg/kg/injection, schedule: Q01DX009 (ip), vehicle: saline): 97 % of control | T/C [1]: 95 % of control | T/C [2]: 100 % of control | T/C [3]: 100 % of control

Cc1ccc(C(=O)Cc2nc(C#N)c(C#N)nc2CC(=O)c2ccc(C)cc2)cc1
T/C [4]: 112 % of control | T/C [5]: 120 % of control

CCOC(=O)c1c(N)c(=O)oc2c3c(c(O)cc12)OCO3
T/C [6]: 94 % of control | T/C [7]: 89 % of control

O=C(O)c1nn(-c2ccc(Cl)cc2)c2c1C(=O)c1ccccc1C2=O
T/C (dose: 12.5 mg/kg/injection, schedule: Q01DX005 (ip), vehicle: Klucel (hydroxypropylcellulose) (HPC)): 98 % of control | T/C (dose: 25.0 mg/kg/injection, schedule: Q01DX005 (ip), vehicle: Klucel (hydroxypropylcellulose) (HPC)): 91 % of control | T/C [6]: 98 % of control and 89 % of control | T/C [7]: 92 % of control | T/C [8]: 103 % of control

NNc1ncnc2c1ncn2C1OC(CO)C(O)C1O (configuration not stated)
T/C (dose: 19.8 mg/kg/injection, schedule: Q01DX009 (ip), vehicle: saline): 120 % of control | T/C (dose: 30.0 mg/kg/injection, schedule: Q01DX009 (ip), vehicle: saline): 150 % of control | T/C (dose: 45.0 mg/kg/injection, schedule: Q01DX009 (ip), vehicle: saline): 160 % of control | T/C [9]: 120 % of control | T/C (dose: 66.0 mg/kg/injection, schedule: Q01DX009 (ip), vehicle: saline with Tween-80): 112 % of control | T/C [10]: 163 % of control | T/C (dose: 100.0 mg/kg/injection, schedule: Q04DX003 (ip), vehicle: saline): 118 % of control | T/C (dose: 200.0 mg/kg/injection, schedule: Q04DX003 (ip), vehicle: saline): 86 % of control

CCN(CC)C1=Nc2ccccc2N(c2ccccc2)C(SC)=C1
T/C [6]: 111 % of control | T/C [7]: 100 % of control | T/C [8]: 97 % of control

CNC(=O)NCc1cccnc1
T/C (dose: 60.0 mg/kg/injection, schedule: Q01DX005 (ip), vehicle: saline): 107 % of control | T/C (dose: 120.0 mg/kg/injection, schedule: Q01DX005 (ip), vehicle: saline): 103 % of control | T/C (dose: 240.0 mg/kg/injection, schedule: Q01DX005 (ip), vehicle: saline): 99 % of control

N=c1c(C(=O)OCc2ccccc2)ncc(CCl)n1O
T/C [11]: 114 % of control | T/C [9]: 124 % of control | T/C [10]: 123 % of control | T/C (dose: 200.0 mg/kg/injection, schedule: Q01DX009 (ip), vehicle: saline with Tween-80): 116 % of control

CCS1=C(C(C)=O)C(=O)O[C@H](C)C1 (some centres not stated)
T/C (dose: 50.0 mg/kg/injection, schedule: Q01DX005 (ip), vehicle: saline): 100 % of control | T/C (dose: 100.0 mg/kg/injection, schedule: Q01DX005 (ip), vehicle: saline): 98 % of control | T/C (dose: 200.0 mg/kg/injection, schedule: Q01DX005 (ip), vehicle: saline): 115 % of control

Cc1c2cc[n+](Cc3ccc(I)cc3)cc2c(C)c2c1[nH]c1ccccc12
T/C (dose: 11.75 mg/kg/injection, schedule: Q04DX002 (ip), vehicle: saline with Tween-80): 112 % of control | T/C (dose: 23.5 mg/kg/injection, schedule: Q04DX002 (ip), vehicle: saline with Tween-80): 116 % of control | T/C (dose: 47.0 mg/kg/injection, schedule: Q04DX002 (ip), vehicle: saline with Tween-80): 124 % of control

COc1cc(O)c2c(c1)C(O)C(O)CC1OC1C(=O)/C=C/CC(C)OC2=O (configuration not stated)
T/C (dose: 1.56 mg/kg/injection, schedule: Q01DX005 (ip), vehicle: saline with Tween-80): 115 % of control | T/C (dose: 3.12 mg/kg/injection, schedule: Q01DX005 (ip), vehicle: saline with Tween-80): 107 % of control | T/C (dose: 6.25 mg/kg/injection, schedule: Q01DX005 (ip), vehicle: saline with Tween-80): 107 % of control | T/C (dose: 12.5 mg/kg/injection, schedule: Q01DX005 (ip), vehicle: saline with Tween-80): 114 % of control

C=C1CC[C@H]2C(C)=CC[C@@H]3[C@H](OC(=O)[C@H]3CN(C)C)[C@@H]12
T/C (dose: 100.0 mg/kg/injection, schedule: Q01DX001 (ip), vehicle: saline): 98 % of control | T/C (dose: 200.0 mg/kg/injection, schedule: Q01DX001 (ip), vehicle: saline): 104 % of control | T/C (dose: 400.0 mg/kg/injection, schedule: Q01DX001 (ip), vehicle: saline): 105 % of control

COc1ccc(C(=O)CCc2cccc(NC(=O)CCCl)c2)cc1
T/C [4]: 105 % of control | T/C [5]: 94 % of control | T/C (dose: 240.0 mg/kg/injection, schedule: Q01DX005 (ip), vehicle: saline with Tween-80): 92 % of control

CC(=Nc1ccccc1)Nc1ccccc1.[Cu+2]
T/C (dose: 12.5 mg/kg/injection, schedule: Q01DX009 (ip), vehicle: saline with Tween-80): 109 % of control | T/C [11]: 105 % of control | T/C [9]: 105 % of control

O=C(Nc1cccc2ccccc12)N1c2ccccc2SC12CCCC2
T/C (dose: 1.56 mg/kg/injection, schedule: Q01DX009 (ip), vehicle: saline with Tween-80): 104 % of control | T/C (dose: 3.13 mg/kg/injection, schedule: Q01DX009 (ip), vehicle: saline with Tween-80): 100 % of control | T/C (dose: 6.25 mg/kg/injection, schedule: Q01DX009 (ip), vehicle: saline with Tween-80): 99 % of control and 94 % of control

COc1cc(C2OCCO2)cc(OC)c1O
T/C [1]: 97 % of control | T/C [2]: 105 % of control | T/C [3]: 101 % of control

CC[NH-].CC[NH-].[Cl][Pt+2][Cl]
T/C (dose: 3.12 mg/kg/injection, schedule: Q01DX009 (ip), vehicle: saline): 150 % of control | T/C (dose: 3.12 mg/kg/injection, schedule: Q01DX009 (ip), vehicle: suspension in saline): 116 % of control | T/C (dose: 6.25 mg/kg/injection, schedule: Q01DX009 (ip), vehicle: saline): 162 % of control | T/C (dose: 12.5 mg/kg/injection, schedule: Q01DX009 (ip), vehicle: saline): 159 % of control | T/C (dose: 12.5 mg/kg/injection, schedule: Q01DX009 (ip), vehicle: suspension in saline): 97 % of control

C=CCc1ccc(OC)c(O)c1C(=O)OCC
T/C [1]: 103 % of control | T/C [2]: 103 % of control | T/C [3]: 95 % of control

CSc1nc(N)c(C(=O)N(c2ccccc2)c2ccccc2)s1
T/C (dose: 50.0 mg/kg/injection, schedule: Q01DX009 (ip), vehicle: Klucel (hydroxypropylcellulose) (HPC)): 100 % of control | T/C (dose: 100.0 mg/kg/injection, schedule: Q01DX009 (ip), vehicle: Klucel (hydroxypropylcellulose) (HPC)): 108 % of control | T/C (dose: 200.0 mg/kg/injection, schedule: Q01DX009 (ip), vehicle: Klucel (hydroxypropylcellulose) (HPC)): 98 % of control

CN(C)c1nc(=O)c2cc(Br)ccc2o1
T/C (dose: 60.0 mg/kg/injection, schedule: Q01DX005 (ip), vehicle: Klucel (hydroxypropylcellulose) (HPC)): 96 % of control | T/C (dose: 120.0 mg/kg/injection, schedule: Q01DX005 (ip), vehicle: Klucel (hydroxypropylcellulose) (HPC)): 100 % of control
